Test results reported in patent US9988343B2, “Inhibitors of histone deacetylase” (Dana-Farber Cancer Institute, Inc., priority 2013, dated 2018).
Like-named read-outs stand apart in the source and are kept apart here.

Columns and labels:
[1] = biological target: HDAC1 (Homo sapiens, UniProt Q13547); assay: HDAC1 inhibitory activity (IC50); assay type: biochemical
Method: (§1) HDAC inhibitor compounds designed and synthesized in accordance with the present invention were tested for their inhibitor activity against several different HDAC isoforms.

[2] = biological target: HDAC2 (Homo sapiens, UniProt Q92769); assay: HDAC2 inhibitory activity (IC50); assay type: biochemical
Method: as §1

[3] = biological target: HDAC3 (Homo sapiens, UniProt O15379); assay: HDAC3 inhibitory activity (IC50); assay type: biochemical
Sequence of HDAC3 (O15379 whole entry): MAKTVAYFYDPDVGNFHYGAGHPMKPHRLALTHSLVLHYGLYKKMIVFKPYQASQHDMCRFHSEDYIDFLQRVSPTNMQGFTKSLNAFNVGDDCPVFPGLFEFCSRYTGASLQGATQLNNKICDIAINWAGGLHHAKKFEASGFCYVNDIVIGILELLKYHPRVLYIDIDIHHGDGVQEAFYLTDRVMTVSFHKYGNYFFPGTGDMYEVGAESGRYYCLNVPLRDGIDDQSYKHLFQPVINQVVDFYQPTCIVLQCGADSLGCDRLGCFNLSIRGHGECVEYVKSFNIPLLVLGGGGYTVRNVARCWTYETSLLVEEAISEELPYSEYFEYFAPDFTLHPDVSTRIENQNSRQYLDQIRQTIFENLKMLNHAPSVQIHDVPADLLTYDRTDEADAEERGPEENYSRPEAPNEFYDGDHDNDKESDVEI
Sequence of HDAC3 (Q9Y618 395-489 partner limits assumed): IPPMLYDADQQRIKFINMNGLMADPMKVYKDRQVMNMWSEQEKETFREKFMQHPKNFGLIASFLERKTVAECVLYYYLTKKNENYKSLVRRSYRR
Method: as §1

[4] = biological target: T1, HDAC6 (Homo sapiens, UniProt Q9UBN7); assay: HDAC6 inhibitory activity (IC50); assay type: biochemical
T1 sequence (Q9UBN7 1-1215): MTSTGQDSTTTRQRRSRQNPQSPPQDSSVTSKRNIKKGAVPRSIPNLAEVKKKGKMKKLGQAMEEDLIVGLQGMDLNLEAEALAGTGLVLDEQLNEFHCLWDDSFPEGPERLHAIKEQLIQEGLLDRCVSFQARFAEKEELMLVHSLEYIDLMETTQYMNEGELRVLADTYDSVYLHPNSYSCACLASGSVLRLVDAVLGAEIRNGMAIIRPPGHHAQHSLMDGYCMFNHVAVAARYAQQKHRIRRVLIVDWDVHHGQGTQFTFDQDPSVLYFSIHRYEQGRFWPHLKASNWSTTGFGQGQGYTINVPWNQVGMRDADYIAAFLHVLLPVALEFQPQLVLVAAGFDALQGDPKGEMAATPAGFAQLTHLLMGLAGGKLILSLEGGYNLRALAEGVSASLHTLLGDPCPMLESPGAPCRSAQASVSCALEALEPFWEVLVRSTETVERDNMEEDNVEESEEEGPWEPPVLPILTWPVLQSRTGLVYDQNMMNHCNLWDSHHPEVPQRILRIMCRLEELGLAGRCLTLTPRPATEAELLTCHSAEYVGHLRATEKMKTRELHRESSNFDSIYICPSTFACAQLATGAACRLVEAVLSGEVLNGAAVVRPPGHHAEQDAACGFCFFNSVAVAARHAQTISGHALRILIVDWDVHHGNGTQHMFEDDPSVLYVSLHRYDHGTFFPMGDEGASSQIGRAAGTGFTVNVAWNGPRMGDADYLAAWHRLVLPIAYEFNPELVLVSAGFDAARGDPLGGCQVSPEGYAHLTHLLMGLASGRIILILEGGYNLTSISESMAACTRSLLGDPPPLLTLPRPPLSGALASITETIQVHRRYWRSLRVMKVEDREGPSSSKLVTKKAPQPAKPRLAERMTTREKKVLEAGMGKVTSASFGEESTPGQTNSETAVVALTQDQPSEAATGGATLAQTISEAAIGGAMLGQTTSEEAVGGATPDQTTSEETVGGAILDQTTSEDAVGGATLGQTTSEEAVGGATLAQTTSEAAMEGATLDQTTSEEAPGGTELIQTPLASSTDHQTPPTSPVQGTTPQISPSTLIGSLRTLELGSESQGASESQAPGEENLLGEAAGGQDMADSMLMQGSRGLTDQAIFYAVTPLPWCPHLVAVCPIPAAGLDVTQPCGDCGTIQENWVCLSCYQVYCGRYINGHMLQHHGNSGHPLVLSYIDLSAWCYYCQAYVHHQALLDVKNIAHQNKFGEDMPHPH
Method: as §1

[5] = tested on: MM cell lines; assay: Cell growth inhibition assay (MTT) in MM cell lines; assay type: cell-based, human; conditions: MM.1S, RPMI8226, U266, OPM1, H929; 1.875-30 μM, 48 h and 72 h, MTT (FIG. 6A)
Method: To measure proliferation of MM cells, the rate of DNA synthesis was measured by ^3[H]-thymidine (Perkin-Elmer) uptake.
The growth inhibitory effect of Merck60 (HDACL, 2 inhibitor previously reported as compound #60 by Method et al. Bioorg. Med. Chem. Lett. 2008. 18(3):973-8) versus MS275 (HDAC1, 2, 3 inhibitor) was examined in MM cell lines using MTT assay. MM cells were cultured with Merck60 (left panel) or MS275 (right panel) for 48 hours. Cell growth was assessed by MTT assay. All experiments were performed 3 times in quadruplicate. Data represent mean±SD.
Cell growth was assessed by MTT assay. All experiments were performed 3 times in quadruplicate. Data represent mean±SD.

[6] = tested on: RPMI8226 cells; assay: Combination with bortezomib, MTT cytotoxicity, combination index; assay type: cell-based, human; conditions: for CI (combination index): RPMI8226, MTT, 24 h
Method: The combined effect of drugs was analyzed by isobologram analysis using the Compusyn software program (ComboSyn, Inc.); a combination index (CI)<1 is indicative of a synergistic effect.
All experiments were performed 3 times in quadruplicate. Data represent mean±SD (FIG. 7D).

[7] = tested on: primary tumor cells from MM patients; assay: MTT growth assay in primary tumor cells from MM patients; assay type: cell-based, human; conditions: 30 μM, 72 hours, MTT (FIG. 6B)
Method: (§2) BM specimens were obtained from patients with MM, and mononuclear cells (MNCs) were separated by Ficoll-Hipaque density sedimentation. Primary CD138+ plasma cells from MM patients were obtained using negative selection, as in previous studies. […] CD138-BMMNCs were used to establish long-term BMSC cultures, as previously described. […] Peripheral blood mononuclear cells were collected from healthy volunteers to obtain mononuclear cells (PBMCs). All procedures were performed with IRB-approved (Dana-Farber Cancer Institute) protocols and informed consent, and in accordance with the Declaration of Helsinki protocol. […] Cell growth was then assessed by MTT assay. Data represents mean±SD from triplicates cultures (FIG. 6B). […] Cell growth was assessed by MTT assay. The data represents mean±SD from triplicate cultures (FIG. 6C).

[8] = tested on: PBMCs; assay: MTT growth assay in normal donor PBMCs; assay type: cell-based, human; conditions: 7.5, 15, 30 μM, 72 hours, MTT (FIG. 6C)
Method: as §2

[9] = tested on: MM.1S cells co-cultured with BMSCs; assay: 3[H]-thymidine incorporation, MM.1S co-cultured with BMSCs; assay type: cell-based, human; conditions: 7.5, 15, 30 μM, 48 hours (FIG. 6D)
Method: To measure proliferation of MM cells, the rate of DNA synthesis was measured by ^3[H]-thymidine (Perkin-Elmer) uptake. […] Cell proliferation was measured by 3[H]-thymidine incorporation assay. Data represent mean±SD from quadruplicate cultures (FIG. 6D).

[10] = tested on: MM.1S cells; assay: Immunoblot of caspase-3 and PARP cleavage; assay type: cell-based, human; conditions: 15 μM (FIG. 6E)
[11] = tested on: MM.1S cells; assay: Immunoblot of histone and α-tubulin acetylation in MM.1S cells; assay type: cell-based, human; conditions: 12 h, Compound 10 10 and 20 μM
[12] = tested on: STAT3 acetylation in MM.1S cells; assay: Immunoprecipitation/immunoblot of STAT3 acetylation; assay type: cell-based, human; conditions: 20 μM, 18 hours (FIG. 6H)
Method: Whole-cell lysates were incubated with anti-STAT3, -JAK2, and -green fluorescent protein (GFP) Abs for 2 hours at 4° C., and then incubated with Protein A/G PLUS-Agarose® (Santa Cruz Biotechnology) overnight at 4° C. Anti-GFP Ab served as a control. Immune complexes were analyzed by immunoblotting with anti-STAT3, -JAK2, -acetylated-Lysine, and -phosphorylated-tyrosine Abs. […] Whole cell lysates were immunoprecipitated with anti-STAT3 Ab. Immunoprecipitates were then subjected to SDS-PAGE and immunoblotted with anti-Ac-K and -STAT3 Abs.

[13] = biological target: T1, HDAC6; assay: Western blot for acetylated alpha-tubulin (HDAC6 inhibition in cells); assay type: cell-based; conditions: 10 or 20 um (FIG. 8A)
[14] = tested on: RPMI8226 cells; assay: Combination with carfilzomib, MTT assay; assay type: cell-based, human; conditions: RPMI8226, Compound 10 5, 10, 20 um + carfilzomib 3, 5, 7.5 nM, 24 h (FIG. 10)
Method: All experiments were performed 3 times in quadruplicate. Data represent mean+/−SD (FIG. 10). The y-axis (% control) indicates the relative number of viable cells after each treatment.

[15] = tested on: pERK1/2 (Thr202/204); assay: Immunoblot of ERK phosphorylation; assay type: cell-based, human; conditions: MM.1S, 10 and 20 μM, 10 hours, then IL-6 10 ng/mL 4 hours (FIG. 6G)

Sequence of HDAC2 (Q92769 whole entry): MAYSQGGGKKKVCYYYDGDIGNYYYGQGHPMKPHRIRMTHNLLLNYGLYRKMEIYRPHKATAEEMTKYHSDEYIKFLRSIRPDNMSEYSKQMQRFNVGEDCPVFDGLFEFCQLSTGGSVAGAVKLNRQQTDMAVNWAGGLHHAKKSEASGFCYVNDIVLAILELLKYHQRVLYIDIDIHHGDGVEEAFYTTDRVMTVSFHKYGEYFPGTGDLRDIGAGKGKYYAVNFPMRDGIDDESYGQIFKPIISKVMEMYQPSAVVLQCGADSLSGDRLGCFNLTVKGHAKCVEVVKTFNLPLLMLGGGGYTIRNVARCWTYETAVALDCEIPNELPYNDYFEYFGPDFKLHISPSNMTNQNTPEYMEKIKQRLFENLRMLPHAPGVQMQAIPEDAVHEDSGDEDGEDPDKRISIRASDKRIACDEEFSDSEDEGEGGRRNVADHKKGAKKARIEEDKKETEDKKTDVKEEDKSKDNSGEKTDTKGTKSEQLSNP
Sequence of HDAC1 (Q13547 whole entry): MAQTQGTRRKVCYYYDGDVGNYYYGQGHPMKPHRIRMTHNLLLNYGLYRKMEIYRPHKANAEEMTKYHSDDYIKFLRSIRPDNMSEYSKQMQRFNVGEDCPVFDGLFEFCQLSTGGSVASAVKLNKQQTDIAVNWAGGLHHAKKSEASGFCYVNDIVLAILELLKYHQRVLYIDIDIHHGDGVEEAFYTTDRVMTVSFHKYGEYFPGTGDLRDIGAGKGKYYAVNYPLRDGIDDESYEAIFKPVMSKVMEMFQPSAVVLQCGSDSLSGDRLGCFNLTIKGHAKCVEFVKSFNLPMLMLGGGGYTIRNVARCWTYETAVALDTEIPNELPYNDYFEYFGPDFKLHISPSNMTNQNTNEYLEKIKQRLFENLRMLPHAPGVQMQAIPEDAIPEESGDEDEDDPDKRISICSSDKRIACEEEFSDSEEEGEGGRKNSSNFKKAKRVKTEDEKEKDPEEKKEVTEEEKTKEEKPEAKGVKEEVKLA

IC50 ([1]; Table 2, read-out: HDAC1): 922 nM | IC50 ([1]; Table 3, read-out: IC50 against the deacetylase activity of HDAC1): 2000 nM | IC50 ([2]; Table 2, read-out: HDAC2): 1490 nM | IC50 ([2]; Table 3, read-out: IC50 against the deacetylase activity of HDAC2): 2200 nM | IC50 ([3]; Example 8, read-out: HDAC3 IC50): 289 nM | IC50 ([3]; Table 2, read-out: HDAC3): 140 nM | IC50 ([4]; Table 2, read-out: HDAC6): 79000 nM | IC50 ([4]; Table 3, read-out: IC50 against the deacetylase activity of HDAC6): > 20000 nM | growth of normal donor PBMCs [8]: without affecting normal donor PBMCs | inhibition of HDAC6 by acetylated alpha-tubulin Western blot [13]: did not inhibit HDAC6
Structure (SMILES): Nc1ccccc1NC(=O)c1cnccn1 [Compound 10, N-(2-aminophenyl)pyrazine-2-carboxamide]
MM cell growth [5]: significantly inhibited MM cell growth in a dose-dependent fashion | CI (combination index) ([6]; BG45 5 μM + bortezomib 2 nM): 1.04 | CI (combination index) ([6]; BG45 5 μM + bortezomib 3 nM): 0.83 | CI (combination index) ([6]; BG45 5 μM + bortezomib 4 nM): 0.84 | CI (combination index) ([6]; BG45 10 μM + bortezomib 2 nM): 1.19 | CI (combination index) ([6]; BG45 10 μM + bortezomib 3 nM): 0.78 | CI (combination index) ([6]; BG45 10 μM + bortezomib 4 nM): 0.77 | CI (combination index) ([6]; BG45 20 μM + bortezomib 2 nM): 0.91 | CI (combination index) ([6]; BG45 20 μM + bortezomib 3 nM): 0.67 | CI (combination index) ([6]; BG45 20 μM + bortezomib 4 nM): 0.63 | bortezomib-induced cytotoxicity ([6]; RPMI8226, bortezomib 2-4 nM + 5, 10, 20 μM Compound 10, 24 h (FIG. 7D)): synergistically enhanced bortezomib-induced cytotoxicity | growth of patient-derived MM cells [7]: potent growth inhibitory effect | MM cell proliferation in the presence of BMSCs [9]: markedly inhibited MM cell growth even in the presence of BMSCs | caspase-3/PARP cleavage (apoptosis) [10]: induces caspase-dependent apoptosis | histone acetylation ([11]; LBH589 50 and 100 nM (FIG. 6F left)): significantly induced acetylation of histone H2A, H3, and H4 | α-tubulin acetylation (biomarker of HDAC6 inhibition) ([11]; LBH589 50 and 100 nM (FIG. 6F right)): did not increase α-tubulin acetylation | acetylation of STAT3 [12]: increased acetylation of STAT3 | cytotoxicity induced by carfilzomib [14]: enhanced the cytotoxicity of carfilzomib | p-ERK1/2 [15]: without affecting p-ERK1/2
